Measured values: PMC5840262, “Design, Synthesis and Evaluation of Branched RRWQWR-Based Peptides as Antibacterial Agents Against Clinically Relevant Gram-Positive and Gram-Negative Pathogens” (Frontiers in Microbiology, 2018)
In brackets after ≈: the same amount, converted by molar mass.

Assays:
[1] = system: Enterococcus faecalis ATCC 29212 (sensitive); assay type: cell-based; conditions: ATCC 29212, 18 h
Method: (§1) We screened all five peptides against the ATCC reference strains and the clinical isolates according to Method M7-A7 of the National Committee for Clinical Laboratory Standards (CLSI, [2007]). The MIC50 and MBC values were determined using a broth microdilution and growth inhibition method previously reported by Leon-Calvijo et al. ([2015]), with some modifications (Wiegand et al., [2008]). Briefly, the MIC50 experiments comprised a liquid-inhibition growth assay in a sterile, untreated, 96-well flat-bottom tissue culture plate. The bacteria were cultured overnight n Mueller Hinton agar; three colonies were transferred to 8 mL of Mueller Hilton broth and incubated at 37°C until the mid-exponential phase of growth. The turbidity of the cultures was measured and adjusted spectrophotometrically to a McFarland standard of 0.5, and then diluted to a final concentration of 5 × 10^7 colony forming units (CFU) per well. Stock solutions (2,000 μM) of each test peptide were serially diluted to final concentrations (per well) of 200, 100, 50, 25, 12.5, and 6.25 μM. Each concentration was evaluated in duplicate and each assay was performed in triplicate.
(§2) Wells containing Mueller Hilton broth with bacterial inoculum only served as bacterial-growth controls. Additional controls included Mueller Hilton broth alone (as blank) and Mueller Hilton broth with ciprofloxacin (2 μg/mL; as positive control). The microplate was incubated for 24 h at 37°C, and growth inhibition was measured by monitoring the optical density at 620 nm (OD620). The MIC50 was defined as the peptide concentration at which bacterial growth was inhibited by 50%.
(§3) To determine the MBC, an aliquot from each well of the MIC50 assay was spread onto Mueller Hilton agar. After 18 h at 37°C, the concentration that inhibited bacterial growth was determined. Each of these tests was performed four times. MBC was defined as the lowest concentration of peptide at which the number of bacteria was reduced by 99.9% in vitro (European Committee for Antimicrobial Susceptibility Testing, [2000]).

[2] = system: Enterococcus faecalis ATCC 51575 (resistant); assay type: cell-based
Method: as §1, §2, §3

[3] = system: Pseudomonas aeruginosa ATCC 10145 (sensitive); assay type: cell-based
Method: as §1, §2, §3

[4] = system: Pseudomonas aeruginosa ATCC 27853 (resistant); assay type: cell-based
Method: as §1, §2, §3

human erythrocytes = test: Hemolytic activity; assay type: cell-based; conditions: red cells of human, 2 h
Method: Human erythrocytes collected from the blood samples of healthy humans were harvested by centrifugation for 7 min at 162 × g and washed three times in phosphate-buffered saline (PBS). The erythrocytes (2% hematocrit in PBS) were incubated with peptide molecules at several concentrations (6.25, 12.5, 25, 50, and 100 μM) for 2 h at 37°C. PBS was used as negative control for hemolysis, and sterile distilled water was used as positive control (100% hemolysis). The plate was subsequently centrifuged at 1,459 × g for 10 min at 4°C. Aliquots of the supernatant from each well (75 μL) were carefully transferred to a new sterile 96-well plate, and hemolytic activity was evaluated by measuring the OD492 using an Asys Expert Plus Microplate reader. The experiments were performed in duplicate, and hemolytic activity was calculated for each peptide.

[5] = system: Gram-negative ATCC strains (K. pneumoniae 13883 and 700603, P. aeruginosa 10145 and 27853)
Excerpt: We determined the therapeutic index of each peptide, which we defined as the ratio of Maximum Hemolytic Activity (Hmax) to MIC50 (Hmax/MIC50).
The therapeutic index (TI) is a ratio of the toxic dose of a substance to its therapeutically-active dose and can be calculated different ways (e.g., LD50/ED50). Here, we calculated a TI value for each peptide against all the Gram-positive or the Gram-negative ATCC strains, by dividing its Hmax by its MIC50 for the given group of strains. […] Additionally, to make our quantitative analysis more robust [geometric mean (Khachatryan et al., [2017]) and fold values], we have included MIC50 values for these peptides against S. aureus and K. pneumoniae that we previously obtained using the same assay, the M7-A7 method of the National Committee for Clinical Laboratory Standards (Leon-Calvijo et al., [2015]).

`CSCC[C@H](NC(=O)[C@H](CCCNC(=N)N)NC(=O)[C@H](Cc1c[nH]c2ccccc12)NC(=O)[C@H](CCC(N)=O)NC(=O)[C@H](Cc1c[nH]c2ccccc12)NC(=O)[C@H](CCCNC(=N)N)NC(=O)[C@H](CCCNC(=N)N)NC(=O)[C@H](CS)NC(=O)[C@H](CCCCN)NC(=O)[C@@H](N)Cc1ccccc1)C(=O)N[C@@H](CCCCN)C(=O)N[C@@H](CCCCN)C(=O)N[C@@H](CC(C)C)C(=O)NCC(=O)N[C@@H](C)C(N)=O` [LfcinB (17–31), reference compound] showed an MBC [1] of over 200.0 µM, an MBC ([2]; ATCC 51575, 18 h) of over 200.0 µM and an MIC50 ([2]; ATCC 51575, 24 h) of over 200.0 µM. For the same molecule, the MBC ([3]; ATCC 10145, 18 h) was over 200.0 µM, the MIC50 ([3]; ATCC 10145, 24 h) was 111.7 µM (≈ 223 µg/mL) and the MBC ([4]; ATCC 27853, 18 h) was over 200.0 µM. For the same molecule, the MIC50 ([4]; ATCC 27853, 24 h) was 99.6 µM (≈ 199 µg/mL), the “H50, concentration of peptide leading to 50% hemolysis” value (human erythrocytes) was over 100 µM and the “Gm, geometric mean of MIC50 values” [5] was 105.5.
